Drawing on patent publication US10138222B2, “Substituted benzamides as RIPK2 inhibitors” (Boehringer Ingelheim International GmbH, priority 2016, dated 2018), this text covers IC50 for 5 compounds.

The target in this assay is RIPK2 (Homo sapiens (Human), UniProt O43353). The assay can be described thus: RIPK2 inhibition, ADP-Glo Kinase Assay. Type of assay: biochemical. To be noted: 8His-RIPK2 FL enzyme 8 nM, ATP 5 μM, 15 minutes pre-incubation, 60 minutes at 37° C., luminescence. In a few lines: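 Full-length 8His-RIPK2 (8 nM) preincubated 15 min at RT with compound (1% DMSO), then 5 μM ATP added for 60 min at 37 °C in HEPES pH 7.5 buffer with Mg2+/Mn2+. ADP measured by ADP-Glo luminescence; activity expressed as % of vehicle control, no-enzyme wells as low control.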
RIPK2, sequence (O43353 whole entry): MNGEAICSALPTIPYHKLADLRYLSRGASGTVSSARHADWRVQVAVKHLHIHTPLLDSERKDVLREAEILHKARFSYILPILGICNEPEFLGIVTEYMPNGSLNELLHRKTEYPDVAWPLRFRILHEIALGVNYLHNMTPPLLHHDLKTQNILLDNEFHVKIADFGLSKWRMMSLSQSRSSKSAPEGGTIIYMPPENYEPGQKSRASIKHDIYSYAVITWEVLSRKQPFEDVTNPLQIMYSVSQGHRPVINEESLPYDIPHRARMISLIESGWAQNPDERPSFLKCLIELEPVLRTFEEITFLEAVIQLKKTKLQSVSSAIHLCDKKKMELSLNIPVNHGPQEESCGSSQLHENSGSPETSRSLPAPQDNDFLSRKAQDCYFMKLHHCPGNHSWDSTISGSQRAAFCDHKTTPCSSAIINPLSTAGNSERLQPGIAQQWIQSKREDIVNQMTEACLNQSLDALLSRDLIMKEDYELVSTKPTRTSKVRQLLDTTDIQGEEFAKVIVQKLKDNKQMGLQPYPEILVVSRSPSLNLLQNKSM
For orientation: ADP-Glo first removes unused ATP, then detects ADP through luciferase.

Molecules are shown by their SMILES.

One may read the IC50 as the point on the concentration scale where inhibition reaches its midpoint.

`COC1COCCC1N1CCC(Nc2cncc(-n3cc(-c4cc(C(=O)NC5CC5)ccc4C)cn3)c2)CC1` (centres unmarked) [Example 163, N-cyclopropyl-3-[1-(5-{[1-(3-methoxyoxan-4-yl)piperidin-4-yl]amino}pyridin-3-yl)-1H-pyrazol-4-yl]-4-methylbenzamide] showed a half-inhibitory concentration (IC50) of 1.1 nM.

`Cc1ccc(C(=O)NC2CC2)cc1-c1cnn(-c2cncc(C3CCOCC3)n2)c1` [Example 128, N-cyclopropyl-4-methyl-3-{1-[6-(oxan-4-yl)pyrazin-2-yl]-1H-pyrazol-4-yl}benzamide] displayed an IC50 of 94 nM.

As to `Cc1ccc(C(=O)NC2CC2)cc1-c1cnn(-c2cncc(OCC3CC3)c2)c1` [Example 146, N-cyclopropyl-3-{1-[5-(cyclopropylmethoxy)pyridin-3-yl]-1H-pyrazol-4-yl}-4-methyl-benzamide], half-maximal inhibition (IC50) was put at 6.1 nM.

The compound `Cc1ccc(C(=O)NC2CC2)cc1-c1cnn(-c2cncc(OC3CCOCC3)c2)c1` [Example 96, N-cyclopropyl-4-methyl-3-{1-[5-(oxan-4-yloxy)pyridin-3-yl]-1H-pyrazol-4-yl}benzamide] yielded a half-inhibitory concentration (IC50) of 5.4 nM.

As for `CC(=O)Nc1cncc(-n2cc(-c3cc(C(=O)NC4CC4)ccc3C)cn2)c1` [Example 111, N-cyclopropyl-3-[1-(5-acetamido-pyridin-3-yl)-1H-pyrazol-4-yl]-4-methylbenzamide], the concentration for half-maximal inhibition (IC50) came out at 5.3 nM.
